Measurements: ChEMBL document CHEMBL5120937, “Design, Synthesis, and Biological Activity of l-1'-Homologated Adenosine Derivatives” (ACS Med Chem Lett, 2022)

Columns and labels:
Mesenchymal stem cells [1] = test: Induction of adipogenesis in human differentiated BMMSC cells assessed as fold increase in adiponectin production at 10 uM measured on 5 day in presence of IDX induction medium by ELISA; type: functional
Mesenchymal stem cells [2] = test: cells; details: Homo sapiens, 120 h
Description: Induction of adipogenesis in human differentiated BMMSC cells assessed as increase in adiponectin secretion and measured on 5 day in presence of IDX induction medium by ELISA

[3] = biological target: T1, Peroxisome proliferator-activated receptor alpha (Homo sapiens) (UniProt Q07869); test: Binding affinity to PPARalpha (unknown origin) at 10 uM by TR-FRET based LanthaScreen competitive binding assay relative to control
T1 sequence (whole entry): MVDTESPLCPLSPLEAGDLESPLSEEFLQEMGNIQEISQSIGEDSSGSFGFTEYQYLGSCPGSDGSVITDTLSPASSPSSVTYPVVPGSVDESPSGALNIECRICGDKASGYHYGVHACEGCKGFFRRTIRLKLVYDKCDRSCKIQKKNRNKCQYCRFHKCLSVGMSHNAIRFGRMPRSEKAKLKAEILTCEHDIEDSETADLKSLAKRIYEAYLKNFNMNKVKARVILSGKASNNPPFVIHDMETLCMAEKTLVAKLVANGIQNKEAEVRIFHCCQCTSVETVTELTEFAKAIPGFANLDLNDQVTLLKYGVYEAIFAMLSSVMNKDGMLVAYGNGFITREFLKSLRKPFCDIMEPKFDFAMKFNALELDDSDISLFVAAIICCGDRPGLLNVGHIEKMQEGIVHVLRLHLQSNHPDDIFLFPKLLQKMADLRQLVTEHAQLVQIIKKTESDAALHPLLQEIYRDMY

[4] = biological target: T2, Peroxisome proliferator-activated receptor gamma (Homo sapiens) (UniProt P37231); test: Binding affinity to PPARgamma (unknown origin) at 10 uM by TR-FRET based LanthaScreen competitive binding assay relative to control
T2 sequence (whole entry): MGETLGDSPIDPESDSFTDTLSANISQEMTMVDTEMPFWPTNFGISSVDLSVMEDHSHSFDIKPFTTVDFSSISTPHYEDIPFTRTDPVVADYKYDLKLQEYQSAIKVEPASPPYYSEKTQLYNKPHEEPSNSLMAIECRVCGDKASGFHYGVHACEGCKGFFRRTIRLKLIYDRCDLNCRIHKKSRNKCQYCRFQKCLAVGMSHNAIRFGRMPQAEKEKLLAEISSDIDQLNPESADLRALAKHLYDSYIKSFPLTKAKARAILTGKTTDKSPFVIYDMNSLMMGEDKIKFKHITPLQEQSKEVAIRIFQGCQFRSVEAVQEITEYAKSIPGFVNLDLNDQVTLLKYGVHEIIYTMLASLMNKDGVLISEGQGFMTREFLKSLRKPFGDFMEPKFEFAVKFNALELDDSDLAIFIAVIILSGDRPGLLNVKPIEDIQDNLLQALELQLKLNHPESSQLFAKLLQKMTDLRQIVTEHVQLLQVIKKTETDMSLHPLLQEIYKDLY

[5] = biological target: T3, Peroxisome proliferator-activated receptor delta (Homo sapiens) (UniProt Q03181); test: Binding affinity to PPARdelta (unknown origin) at 10 uM by TR-FRET based LanthaScreen competitive binding assay relative to control
T3 sequence (whole entry): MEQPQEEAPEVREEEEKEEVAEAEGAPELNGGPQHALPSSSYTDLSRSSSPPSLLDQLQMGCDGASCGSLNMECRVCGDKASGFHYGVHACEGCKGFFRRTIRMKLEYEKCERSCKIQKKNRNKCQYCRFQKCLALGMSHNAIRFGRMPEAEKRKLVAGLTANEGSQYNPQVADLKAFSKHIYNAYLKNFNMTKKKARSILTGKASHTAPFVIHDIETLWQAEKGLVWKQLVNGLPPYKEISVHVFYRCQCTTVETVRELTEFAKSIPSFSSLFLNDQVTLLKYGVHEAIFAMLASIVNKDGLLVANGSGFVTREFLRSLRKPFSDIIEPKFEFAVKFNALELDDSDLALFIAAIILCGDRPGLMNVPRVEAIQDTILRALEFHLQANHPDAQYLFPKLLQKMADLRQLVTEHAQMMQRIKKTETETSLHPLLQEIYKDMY

[6] = biological target: T4, Peroxisome proliferator-activated receptor delta (Homo sapiens, UniProt Q03181)
T4 sequence (Q03181 whole entry): T3 sequence (whole entry)
Description: Binding affinity to PPARdelta (unknown origin) by TR-FRET based LanthaScreen competitive binding assay

Row | Structure (SMILES) | Activity [3] | Activity [4] | Activity [5] | also measured
1 | CCc1ccc(CCOc2ccc(CC3SC(=O)NC3=O)cc2)nc1 (stereo unspecified) [PIOGLITAZONE] | – | – | – | fold change (FC) (Mesenchymal stem cells [1]): 7.8; EC50 (Mesenchymal stem cells [2]): 900 nM
2 | O[C@H]1[C@@H](O)CO[C@@H]1Cn1cnc2c(NCc3cccc(Br)c3)ncnc21 | 3.8% | 12.5% | 1.2% | –
3 | O[C@H]1[C@@H](O)CO[C@@H]1Cn1cnc2c(NCc3cccc(Cl)c3)ncnc21 | 3.1% | 5.9% | 21.5% | –
4 | COc1ccc(Cl)cc1C(=O)NCCc1ccc(S(=O)(=O)NC(=O)NC2CCCCC2)cc1 [GLYBURIDE] | – | – | – | fold change (FC) (Mesenchymal stem cells [1]): 6.2
5 | O[C@H]1[C@@H](O)CO[C@@H]1Cn1cnc2c(NCc3cccc(F)c3)ncnc21 | 7.6% | 11.5% | 8% | –
6 | O[C@H]1[C@@H](O)CO[C@@H]1Cn1cnc2c(NCc3cccc(I)c3)ncnc21 | 13.2% | 3.9% | 16.3% | –

Further lines, with some results ahead:

Row | Activity [3] | Activity [4] | Activity [5] | Structure (SMILES) | also measured
7 | 3.9% | – | – | O[C@@H]1[C@H](O)CO[C@H]1Cn1cnc2c(NCc3cccc(I)c3)nc(Cl)nc21 | –
8 | 17.2% | – | – | O[C@H]1[C@@H](O)CO[C@@H]1Cn1cnc2c(NCc3cccc(I)c3)nc(Cl)nc21 | –
9 | 14.5% | 6.3% | 29.5% | O[C@H]1[C@@H](O)CO[C@@H]1Cn1cnc2c(NCc3cccc(F)c3)nc(Cl)nc21 | –
10 | 8.7% | 25.5% | – | O[C@H]1[C@@H](O)CO[C@@H]1Cn1cnc2c(NCc3cccc(Br)c3)nc(Cl)nc21 | Ki [6]: 3400 nM
11 | 19.1% | 10.7% | – | O[C@H]1[C@@H](O)CO[C@@H]1Cn1cnc2c(NCc3cccc(Cl)c3)nc(Cl)nc21 | Activity ([5]; filed as antagonist): 46.3%
